Drawing on a melting point compilation (Tetko et al.; mined from patent text by program, amines drawn as free bases though some values may be those of a salt), this text covers melting point for 87 compounds.

A word on the melting point: it is the temperature of the solid-liquid transition.

Structures are written as SMILES. Some results are limits rather than exact numbers.

As for `O=C(c1nnn(Cc2cc(C(F)(F)F)cc(C(F)(F)F)c2)c1-n1ccnc1)c1c(CO)noc1-c1ccccc1Cl`, the melting point amounted to 149 °C.
The result for `Cc1nc2n(c(=O)c1CCO)CCCN2Cc1ccccc1` reads 150 °C; that for `COc1cc2[nH]c(C)c(C(=O)C(=O)N3CCC(C(=O)c4ccccc4)CC3)c2cc1OC`, 188 to 190 °C.
Then `O=C(CNc1ccc2[nH]c(=O)[nH]c2c1)N1CCC(Cc2ccccc2)CC1`, with 237 to 238 °C; and `COc1ccc(Br)cc1N(C=NCl)C1CC1`, with 185 °C; and `COC(=O)c1ccc(-c2cc(-c3ccc4c(c3)C(C)(C)CCC4(C)C)[nH]n2)cc1`, with 155 to 156 °C.
As to `Cc1cc(CC(=O)N[C@H]2CC[C@H](CCN3CCN(c4nccc5c4CCO5)CC3)CC2)on1`, the melting point was 172 °C.
The result for `CC(=O)Oc1c(Cl)ccc2c(-c3ccccc3)c(Sc3ccccc3)c(Sc3ccccc3)c(-c3ccccc3)c12` reads 138 to 140 °C; that for `CC(C)C[C@H](N[C@H](CCN1C(=O)c2cc3ccccc3cc2C1=O)C(=O)OC(C)(C)C)C(=O)O`, 168 to 169 °C; that for `C=CCOc1cc(NC(=O)OC(C)(C)C)c([N+](=O)[O-])cc1I`, 93 to 95 °C.
Then `O=C(CBr)Nc1coc2ccccc2c1=O`, with 198 °C; and `CCOC(=O)c1cn(-c2ccc(F)cn2)c2c(F)c(F)c(F)cc2c1=O`, with 203 to 205 °C.
Then `ON1Cc2ccccc2C1=S`, with 110 to 111 °C; and `COc1cc(C)ccc1Oc1ccc(Br)cc1O`, with 75 to 76 °C.
For `COc1cccc(-c2ccc3c(c2)C(C)(C(F)(F)F)OC(=O)N3)c1` (configuration not stated), the melting point fell in the range of 178 to 179 °C.
For `O=C1c2cc(O)ccc2OCC1Cc1ccccc1` (configuration not stated), the melting point fell in the range of 140 to 143 °C.
The result for `COc1ccc(Cl)cc1-c1c(S)c(=O)[nH]c2ccc(C(F)(F)F)cc12` reads 239 to 241 °C.
The result for `O=C(O)C1=Cc2cc(Cl)cc(F)c2OC1C(F)(F)F` (configuration not stated) reads 191 to 193 °C; that for `CCN(CC)C(=O)Nc1ccc(S(=O)(=O)N2C(=O)C(NCCN3CCNCC3)(c3ccccc3Cl)c3cc(Cl)ccc32)cc1` (configuration not stated), 260 °C; that for `O=C(Oc1cccc(Cl)c1)c1ncn2c1[C@@H]1CCCN1C(=O)c1c(Cl)cccc1-2`, 194 to 195 °C.
The result for `CC(C)Cn1c(=O)n(C)c(=O)c2cc(Cc3ccccc3)sc21` reads 72 to 73 °C; that for `COc1ccc(Sc2ccc3c(c2)OCC(=O)N3)cc1OC`, 97 to 98 °C.
In the case of `S=C(NCc1cccnc1)NC(=Nc1ccccc1)c1ccccc1`, the melting point was in the range of 146 to 147 °C.
Turning to `CNC(=O)C(Cc1ccc(OC)cc1)NC(=O)C(CC(C)C)C(CC(=O)NCC(N)=O)SC(C)=O` (configuration not stated), the melting point was 218 to 219 °C.
The compound `CN(Cc1cc2c3c(c1)c(=O)c(C(=O)NCc1ccc(F)cc1)cn3CC(=O)N2C)C[C@@H](O)c1nccs1` displayed a melting point of 156 to 158 °C.
The result for `CC(=O)c1ccc(-c2ccc(S)cc2)cc1` reads 126 to 128 °C; that for `CCCC(=O)Nc1ccccc1Oc1cc(-c2ccc(C(F)(F)F)cc2)ncn1`, 112 °C; that for `O=C1NCc2ccccc2C([N+](=O)[O-])N1` (configuration not stated), 93 to 95 °C.
The result for `O=C(O)C1=C(C(=O)Nc2ccc(Cl)cc2F)CCCC1` reads 91 to 93 °C.
Then `CCCCCS(=O)(=O)NC(=O)/C=C/c1cc(C(C)C)nn1Cc1ccc(Cl)cc1Cl`, with 149 to 151 °C; and `CN(Cc1cc2c(=O)c(C(=O)NCc3ccc(Cl)cc3)cn(C)c2o1)CC(O)c1ccccn1` (configuration not stated), with 130 to 132 °C.
`O=S(=O)(c1ccccc1)N1CCC(C(=Nc2ccc(F)cc2)c2ccc(F)cc2)CC1`: the melting point fell in the range of 123 to 124 °C.
As to `Cc1cccc(NC(=O)NCC(=O)N(CC(=O)N2CCc3ccccc32)c2ccccc2)c1`, the melting point worked out at 190 °C.
For the compound `N#CCCCOc1cccc(OCc2ccc3ccccc3n2)c1`, the melting point was in the range of 84 to 85 °C.
The result for `COc1ccc(Cn2c(N)c(C#N)c3c2CCCC3)cc1` reads 122 to 126 °C; that for `CC(=O)c1cccc([C@H]2C[C@H]2NC(=O)Nc2ccc(Cl)cn2)c1` (racemic), 144 to 145 °C.
In turn, `O=c1c(-c2ccccc2)c[nH]n1-c1cccc(Cl)c1` gave a melting point of 211 to 212 °C.
For `CS(=O)(=O)c1ccc(C(=O)c2cc(-c3ccc(S(C)(=O)=O)cc3)c(N3CCOCC3)s2)cc1`, the melting point was found to be 190 °C.
As for `N=C(N)NOCc1ccccc1`, the melting point lay in the range of 104 to 105 °C.
The result for `COc1ccc(-c2cc3cc(F)c(F)cc3[nH]2)cc1NCc1ccc(O)c([N+](=O)[O-])c1` reads 195 to 196 °C.
`O=C(NCc1ccccc1)c1ccnc(N2CCC(c3ccccc3)CC2=O)c1` (configuration not stated): the melting point was in the range of 55 to 60 °C.
Compound `CN1CCC(c2c[nH]c3ccc(C(=O)c4ccc(Cl)cc4)cc23)CC1` had a melting point of 133 °C.
`O=C1NC(Cc2ccccc2)C(=O)N/C1=C\c1ccc(O)cn1` (configuration not stated) displayed a melting point of 251 to 252 °C.
Turning to `COC(=O)c1ccc(OC(=O)CCC(=O)Oc2ccc(C(=O)OC)cc2)cc1`, the melting point was found to be 190 °C.
Then `O=C(Cc1ccc(OCc2ccccc2)cc1)Nc1nnc(-c2cccc(Oc3cccc(C(F)(F)F)c3)c2)s1`, with 194 to 195 °C; and `OC12N=C(c3ccccc3)SC1(Br)Cc1cc(Cl)ccc12` (configuration not stated), with 148 °C; and `CC=Cc1cccc2c(=O)c(C)c(-c3ccc(OC)cc3)oc12`, with 169 to 171 °C.
The result for `Cn1c2c(cnc3c(N)cccc32)c(=O)n1C(=O)OC(C)(C)C` reads > 250 °C; that for `CCOC(=O)c1cc(C)nc2sc(C(N)=O)c(N)c12`, 205 to 208 °C; that for `CC(C)(C)c1cc(CCc2cc(C(C)(C)C)c(O)c(C(C)(C)C)c2)cc(C(C)(C)C)c1O`, 170 to 171 °C.
The result for `Cc1cnc2cccc(Oc3cc(-c4ccc(C(F)(F)F)cc4)ncn3)c2n1` reads 139 to 141 °C.
On to `COc1cccc2c1C(=O)N(CCl)S2(=O)=O`, for which the melting point fell in the range of 169 to 174 °C.
The result for `O=C(NCC(F)(F)F)C1(CCCCN2CCN(c3ccc4cccc(Cl)c4n3)CC2)c2ccccc2Oc2ccccc21` reads 68 °C.
Turning to `COc1cc(C(=O)O)ccc1C(F)(F)F`, the melting point lay in the range of 203 to 204 °C.
The result for `NC(=O)c1coc(-c2ccc(Oc3ccc(F)cc3)cc2)n1` reads 164 °C; that for `COC(=O)C1CN(C(=O)c2cc(OC)c(OC)c(OC)c2)CCN1` (configuration not stated), 113 to 114 °C; that for `O=C(NNc1nc(-c2ccccc2)c2cc(Cl)ccc2n1)C(F)(F)F`, 207 to 208 °C.
Compound `c1ncn(CCc2ccc3c(c2)-c2[nH]nc(-c4ccsc4)c2C3)n1` displayed a melting point of 167 to 168 °C.
Then `CCCCOc1ccc(-c2nc(Cl)c(C=O)[nH]2)cc1`, with 74 °C; and `Cn1cc(C(=O)c2ccncc2)cc1C(=O)c1ccccc1`, with 127 to 129 °C; and `N#Cc1ccc(NC(=O)NC(=O)c2ccccc2Cl)c(Cl)c1Cl`, with 278 to 282 °C.
`CSCc1nnc(-c2ccc3occ(-c4cccc(OC(F)(F)F)c4)c3c2)o1` showed a melting point of 84 to 85 °C.
`O=C1CCCC2=C1C(c1ccc(Cl)c(C(F)(F)F)c1)C1=C(CCS1)N2` (single isomer, unassigned; (+)): the melting point is > 250 °C.
The result for `CN(C)c1ccc(CN2C(=O)C3(COc4cc5c(cc43)OCCO5)c3ccccc32)cn1` (configuration not stated) reads 93 to 95 °C; that for `CCCc1ccccc1OCCCOc1ccc2c(=O)cc(C(=O)O)oc2c1CC`, 198 to 199 °C.
Then `CC(=O)NC(=O)NCC1CC2c3cccc4[nH]c(Br)c(c34)CC2N(C)C1` (configuration not stated), with 210 to 212 °C; and `COc1ccc(-n2ncc3c2-c2ccccc2C3)cc1`, with 102 to 103 °C; and `COC(=O)[C@@H]1CCCN1C(=O)C[C@H]1CCc2ccccc2C1`, with 62 to 64 °C.
In turn, `NN=C(c1cccc(F)c1)c1cccc(F)c1` came in with a melting point of 35 to 36 °C.
The result for `NNc1ccc(S(N)(=O)=O)cc1` reads 169 to 171 °C; that for `CCOC(=O)CN(N)C(=O)Nc1ccccc1C(=O)C1CCCCC1`, 108 to 110 °C.
The result for `Cc1noc(NS(=O)(=O)c2ccccc2-c2ccc(-c3ncco3)cc2-c2ncco2)c1C` reads 108 to 113 °C.
In the case of `OC(c1cccnc1)c1cc(F)ccc1F` (configuration not stated), the melting point lay within 79 to 80 °C.
The result for `C=CC[C@H](CC(=O)OC(C)(C)C)C(=O)N[C@H](C(=O)OCc1ccccc1)C(C)(C)C` reads 55 to 57 °C; that for `CCC(=O)C(C)Oc1cc(C(=O)OC)ccc1OC` (configuration not stated), 63 to 65 °C; that for `CCCSc1ncc(CC(Cc2ccccc2)C(=O)O)n1Cc1ccccc1Cl` (configuration not stated), 123 to 127 °C.
Then `CCCCCS(=O)(=O)NC(=O)/C=C/c1ccc(OCCOC2CC2)cc1Oc1ncc(C(F)(F)F)cc1Cl`, with 105 to 106 °C; and `CNC(=S)C1(c2cccnc2)CCCCC1NOCCO` (configuration not stated), with 142 to 145 °C; and `Cc1nc(N)nc(N)c1N1CCN(c2ccc(C=NOCC(=O)OCCc3ccccc3)cc2)CC1`, with 255 to 257 °C.
The result for `COc1c(Cl)ccc(-c2cc(N)c(Cl)c(C(=O)NOCCC#N)n2)c1F` reads 191 to 194 °C.
For the compound `C=Cc1ccc(CSc2ccccc2C(=O)O)cc1`, the melting point lay in the range of 207 to 209 °C.
Then `CC(C)(C)CC(C)(C)c1cc(-n2nc3ccc(-c4ccsc4)cc3n2)c(O)c(C(C)(C)c2ccccc2)c1`, with 147 to 149 °C; and `CC(C)OC(=O)Cc1ccc2c(c1)C(=O)c1ccccc1CO2`, with 67 to 68.5 °C; and `CNC(=S)NCCCNc1ccccn1`, with 134 to 135 °C.
`COc1ccc(C(=O)Nc2c(Cl)cncc2Cl)c2c1OCC2CC(=O)NCc1ccccc1Cl` (configuration not stated) displayed a melting point of 288 to 289 °C.
The result for `Cn1cnc(COc2nc3c(nnn3-c3ccccc3)c3ccccc23)n1` reads 189 to 190 °C; that for `CC(C)CCCOc1ccc2[nH]ncc2c1`, 124 to 126 °C.
